Results: ChEMBL document CHEMBL3745669, “Isolation of bioactive biphenyl compounds from the twigs of Chaenomeles sinensis” (Bioorg Med Chem Lett, 2016)

Experiments:
BV-2 = test: Anti-neuroinflammatory activity in mouse BV2 cells assessed as inhibition of LPS-induced NO production after 24 hrs by Griess assay; assay type: functional, cell-based; details: BV-2, 24 h
A549 = test: Cytotoxicity against human A549 cells after 48 hrs by SRB assay; assay type: functional, cell-based; details: A549, 48 h
[1] = Cytotoxicity against mouse BV2 cells assessed as viable cells at 20 uM by MTT assay; assay type: cell-based, BV-2; details: read-out: Activity
C6 = test: Stimulation of NGF secretion in rat C6 cells at 20 uM after 24 hrs by ELISA; assay type: functional
[2] = Cytotoxicity against human HCT15 cells after 48 hrs by SRB assay; assay type: functional, cell-based; details: HCT-15, 48 h
SK-MEL-2 = test: Cytotoxicity against human SK-MEL-2 cells after 48 hrs by SRB assay; assay type: functional, cell-based; details: SK-MEL-2, 48 h
[3] = Cytotoxicity against human SKOV3 cells after 48 hrs by SRB assay; assay type: functional, cell-based; details: SK-OV-3, 48 h
[4] = Cytotoxicity against rat C6 cells assessed as viable cells at 20 uM by MTT assay; assay type: cell-based; details: read-out: Activity

COc1cc(-c2ccccc2)cc(Oc2c(OC)cc([C@@H](O)[C@H](O)CO)cc2OC)c1O [BERBEKORIN A]
IC50 (BV-2): 49.3 µM | IC50 (A549): 4.12 µM | viability at 20 µM [1]: 116% | Activity (C6): 155.02% | IC50 [2]: 1.96 µM | IC50 (SK-MEL-2): 4.49 µM | IC50 [3]: 4.03 µM | viability at 20 µM [4]: 119%

COc1cc([C@@H]2c3cc4c(cc3[C@@H](O[C@@H]3O[C@@H]5CO[C@@H](C)O[C@H]5[C@H](O)[C@H]3O)[C@H]3COC(=O)[C@H]23)OCO4)cc(OC)c1O [ETOPOSIDE]
IC50 (A549): 1.74 µM | IC50 [2]: 2.95 µM | IC50 (SK-MEL-2): 1.33 µM | IC50 [3]: 1.96 µM

COc1ccc(-c2cc(OC)c(O)c(Oc3c(OC)cc([C@@H](O)[C@H](O)CO)cc3OC)c2)c(OC)c1
IC50 (BV-2): 48.4 µM | IC50 (A549): 12.7 µM | viability at 20 µM [1]: 132% | Activity (C6): 125.81% | IC50 [2]: 27.3 µM | IC50 (SK-MEL-2): 16.3 µM | IC50 [3]: 29.5 µM | viability at 20 µM [4]: 115%

COc1ccc2c(oc3c(OC)c(OC)c(O)cc32)c1O
IC50 (BV-2): 15.8 µM | IC50 (A549): > 30 µM | viability at 20 µM [1]: 198% | Activity (C6): 186.49% | IC50 [2]: > 30 µM | IC50 (SK-MEL-2): 23.5 µM | IC50 [3]: 19.3 µM | viability at 20 µM [4]: 113%

CCCCC/C=C/C(=O)CCc1ccc(O)c(OC)c1 [SHOGAOL]
Activity (C6): 158.18% | viability at 20 µM [4]: 110%

COc1ccccc1-c1cc(OC)c(O)c(OC)c1
IC50 (BV-2): 28.1 µM | viability at 20 µM [1]: 138% | Activity (C6): 152.86% | viability at 20 µM [4]: 118%

CNC(=N)NCCC[C@H](N)C(=O)O [TILARGININE]
IC50 (BV-2): 20.5 µM | viability at 20 µM [1]: 100%

COc1ccc(-c2cc(OC)c(O)c(OC)c2)c(OC)c1
IC50 (BV-2): 39.6 µM | IC50 (A549): 5.18 µM | viability at 20 µM [1]: 129% | Activity (C6): 164.56% | IC50 [2]: 7.81 µM | IC50 (SK-MEL-2): 6.94 µM | IC50 [3]: 7.84 µM | viability at 20 µM [4]: 119%

COc1cc(-c2ccccc2)cc(OC)c1O [AUCUPARIN]
IC50 (BV-2): 50.1 µM | viability at 20 µM [1]: 126% | Activity (C6): 125.76% | viability at 20 µM [4]: 117%

COc1cc(-c2ccccc2O)cc(OC)c1O
IC50 (BV-2): 38.1 µM | viability at 20 µM [1]: 118% | Activity (C6): 137.33% | viability at 20 µM [4]: 119%
